Results as given in ChEMBL document CHEMBL4680139, “Antiproliferative activity of diarylnaphthylpyrrolidine derivative via dual target inhibition” (Eur J Med Chem, 2020).
Values after ≈ are worked out from the molar mass of the structure shown.

How the values were obtained:
[1] = Toxicity in Swiss albino mouse assessed as SGPT level in serum at 5 mg/kg, po administered as single dose (reference value: 21.81 +/-2.1 U/L); format: organism-based; conditions: in vivo
MCF7 [2] = test: Antiproliferative activity against human MCF-7 cells assessed as proportion of live cells at 50 ug/ml measured after 3 weeks by crystal violet staining based soft agar colony formation assay (reference value: 100%); format: functional; conditions: dose 50 µg/ml
MCF7 [3] = test: Antiproliferative activity against human MCF-7 cells assessed as inhibition of cell growth measured after 48 hrs by SRB assay; format: functional, cell-based; conditions: MCF7, 48 h
[4] = Toxicity in Swiss albino mouse assessed as SGPT level in serum at 300 mg/kg, po administered as single dose (reference value: 21.81 +/-2.1 U/L); format: organism-based; conditions: in vivo
[5] = Toxicity in Swiss albino mouse assessed as albumin level in serum at 50 mg/kg, po administered as single dose (reference value: 0.56 +/-0.02 g/dl); format: organism-based; conditions: in vivo
MCF7 [6] = test: Induction of apoptosis in human MCF-7 cells assessed as proportion of necrotic cells at 4.33 uM measured after 24 hrs by Annexin V- FITC/propidium iodide staining based flow cytometry (reference value: 5.3%); format: functional
MCF7 [7] = test: Induction of cell cycle arrest in human MCF-7 cells assessed as accumulation at S phase at 2.17 uM by propidium iodide staining based flow cytometry (reference value: 6.9%); format: functional
[8] = target: DNA topoisomerase 2-alpha (Homo sapiens) (UniProt P11388); test: Inhibition of DNA-topoisomerase 2 in human MCF7 cells using kinetoplast DNA as substrate at 17.32 uM measured by ELISA; format: cell-based
MCF7 [9] = test: Induction of apoptosis in human MCF-7 cells assessed as proportion of early apoptotic cells at 4.33 uM measured after 24 hrs by Annexin V- FITC/propidium iodide staining based flow cytometry (reference value: 0%); format: functional
[10] = target: DNA topoisomerase 2-alpha (Homo sapiens) (UniProt P11388); test: Inhibition of DNA-topoisomerase 2 in human MCF7 cells using kinetoplast DNA as substrate at 4.33 uM measured by ELISA; format: cell-based
MDA-MB-231 [11] = test: Induction of cell cycle arrest in human MDA-MB-231 cells assessed as accumulation at G2/M phase at 2.6 uM by propidium iodide staining based flow cytometry (reference value: 8.35 +/-0.07%); format: functional
[12] = Toxicity in Swiss albino mouse assessed as ALP level in serum at 300 mg/kg, po administered as single dose (reference value: 195.8 +/-12.06 U/L); format: organism-based; conditions: in vivo
[13] = Toxicity in Swiss albino mouse assessed as triglyceride level in serum at 50 mg/kg, po administered as single dose (reference value: 78.34 +/-2.99 mg/dl); format: organism-based; conditions: in vivo
MCF7 [14] = test: Induction of cell cycle arrest in human MCF-7 cells assessed as accumulation at G0/G1 phase at 4.33 uM by propidium iodide staining based flow cytometry (reference value: 74.5%); format: functional
MDA-MB-231 [15] = test: Antiproliferative activity against human MDA-MB-231 cells assessed as inhibition of cell growth measured after 48 hrs by SRB assay; format: functional, cell-based; conditions: MDA-MB-231, 48 h, read-out: IC50
MCF7 [16] = test: Antiproliferative activity against human MCF-7 cells assessed as proportion of dead cells at 12.5 ug/ml measured after 3 weeks by crystal violet staining based soft agar colony formation assay; format: functional; conditions: dose 12.5 µg/ml
A549 = test: Antiproliferative activity against human A549 cells assessed as inhibition of cell growth measured after 48 hrs by SRB assay; format: functional, cell-based; conditions: A549, 48 h
[17] = Toxicity in Swiss albino mouse assessed as cholesterol level in serum at 300 mg/kg, po administered as single dose (reference value: 103.62 +/-7.45 mg/dl); format: organism-based; conditions: in vivo
MCF7 [18] = test: Antiproliferative activity against human MCF-7 cells assessed as inhibition of colony formation measured after 3 weeks by crystal violet staining based soft agar colony formation assay; format: functional, cell-based
[19] = Toxicity in Swiss albino mouse assessed as haemoglobin level in blood at 50 mg/kg, po administered as single dose (reference value: 12.05 +/-0.88 gm/dl); format: organism-based; conditions: in vivo
MDA-MB-231 [20] = test: Induction of apoptosis in human MDA-MB-231 cells assessed as proportion of necrotic cells at 2.6 uM measured after 24 hrs by Annexin V-FITC/propidium iodide staining based flow cytometry (reference value: 0.2%); format: functional
MDA-MB-231 [21] = test: Induction of apoptosis in human MDA-MB-231 cells assessed as proportion of necrotic cells at 10.42 uM measured after 24 hrs by Annexin V-FITC/propidium iodide staining based flow cytometry (reference value: 0.2%); format: functional
[22] = Toxicity in Swiss albino mouse assessed as absolute and relative heart weight at 5 to 300 mg/kg, po administered as single dose; format: organism-based; conditions: in vivo, dose 5-300 mg/kg
MCF7 [23] = test: Induction of cell cycle arrest in human MCF-7 cells assessed as accumulation at G2/M phase at 4.33 uM by propidium iodide staining based flow cytometry (reference value: 15.2%); format: functional
[24] = Toxicity in Swiss albino mouse assessed as morbidity upto 300 mg/kg, po administered as single dose; format: organism-based; conditions: in vivo
MDA-MB-231 [25] = test: Induction of apoptosis in human MDA-MB-231 cells assessed as proportion of late apoptotic cells at 5.21 uM measured after 24 hrs by Annexin V-FITC/propidium iodide staining based flow cytometry (reference value: 0.5%); format: functional
[26] = Toxicity in Swiss albino mouse assessed as body weight at 50 mg/kg, po administered as single dose (reference value: 31.62 +/- 1.64 gms); format: organism-based; conditions: in vivo
MCF7 [27] = test: Induction of apoptosis in human MCF-7 cells assessed as proportion of viable cells at 2.17 uM measured after 24 hrs by Annexin V- FITC/propidium iodide staining based flow cytometry (reference value: 94.6%); format: functional
[28] = Toxicity in Swiss albino mouse assessed as ALP level in serum at 50 mg/kg, po administered as single dose (reference value: 195.8 +/-12.06 U/L); format: organism-based; conditions: in vivo
MDA-MB-231 [29] = test: Induction of apoptosis in human MDA-MB-231 cells assessed as proportion of early apoptotic cells at 2.6 uM measured after 24 hrs by Annexin V-FITC/propidium iodide staining based flow cytometry (reference value: 0.2%); format: functional
[30] = Toxicity in Swiss albino mouse assessed as absolute and relative lung weight at 5 to 300 mg/kg, po administered as single dose; format: organism-based; conditions: in vivo, dose 5-300 mg/kg
HCT-116 = test: Antiproliferative activity against human HCT-116 cells assessed as inhibition of cell growth measured after 48 hrs by SRB assay; format: functional, cell-based; conditions: HCT-116, 48 h
MCF7 [31] = test: Antiproliferative activity against human MCF-7 cells assessed as proportion of dead cells at 25 ug/ml measured after 3 weeks by crystal violet staining based soft agar colony formation assay; format: functional; conditions: dose 25 µg/ml
[32] = Toxicity in Swiss albino mouse assessed as body weight at 5 mg/kg, po administered as single dose (reference value: 31.62 +/- 1.64 gms); format: organism-based; conditions: in vivo
[33] = Toxicity in Swiss albino mouse assessed as mortality upto 300 mg/kg, po administered as single dose; format: organism-based; conditions: in vivo

Chain of DNA topoisomerase 2-alpha (Homo sapiens) (P11388 whole entry): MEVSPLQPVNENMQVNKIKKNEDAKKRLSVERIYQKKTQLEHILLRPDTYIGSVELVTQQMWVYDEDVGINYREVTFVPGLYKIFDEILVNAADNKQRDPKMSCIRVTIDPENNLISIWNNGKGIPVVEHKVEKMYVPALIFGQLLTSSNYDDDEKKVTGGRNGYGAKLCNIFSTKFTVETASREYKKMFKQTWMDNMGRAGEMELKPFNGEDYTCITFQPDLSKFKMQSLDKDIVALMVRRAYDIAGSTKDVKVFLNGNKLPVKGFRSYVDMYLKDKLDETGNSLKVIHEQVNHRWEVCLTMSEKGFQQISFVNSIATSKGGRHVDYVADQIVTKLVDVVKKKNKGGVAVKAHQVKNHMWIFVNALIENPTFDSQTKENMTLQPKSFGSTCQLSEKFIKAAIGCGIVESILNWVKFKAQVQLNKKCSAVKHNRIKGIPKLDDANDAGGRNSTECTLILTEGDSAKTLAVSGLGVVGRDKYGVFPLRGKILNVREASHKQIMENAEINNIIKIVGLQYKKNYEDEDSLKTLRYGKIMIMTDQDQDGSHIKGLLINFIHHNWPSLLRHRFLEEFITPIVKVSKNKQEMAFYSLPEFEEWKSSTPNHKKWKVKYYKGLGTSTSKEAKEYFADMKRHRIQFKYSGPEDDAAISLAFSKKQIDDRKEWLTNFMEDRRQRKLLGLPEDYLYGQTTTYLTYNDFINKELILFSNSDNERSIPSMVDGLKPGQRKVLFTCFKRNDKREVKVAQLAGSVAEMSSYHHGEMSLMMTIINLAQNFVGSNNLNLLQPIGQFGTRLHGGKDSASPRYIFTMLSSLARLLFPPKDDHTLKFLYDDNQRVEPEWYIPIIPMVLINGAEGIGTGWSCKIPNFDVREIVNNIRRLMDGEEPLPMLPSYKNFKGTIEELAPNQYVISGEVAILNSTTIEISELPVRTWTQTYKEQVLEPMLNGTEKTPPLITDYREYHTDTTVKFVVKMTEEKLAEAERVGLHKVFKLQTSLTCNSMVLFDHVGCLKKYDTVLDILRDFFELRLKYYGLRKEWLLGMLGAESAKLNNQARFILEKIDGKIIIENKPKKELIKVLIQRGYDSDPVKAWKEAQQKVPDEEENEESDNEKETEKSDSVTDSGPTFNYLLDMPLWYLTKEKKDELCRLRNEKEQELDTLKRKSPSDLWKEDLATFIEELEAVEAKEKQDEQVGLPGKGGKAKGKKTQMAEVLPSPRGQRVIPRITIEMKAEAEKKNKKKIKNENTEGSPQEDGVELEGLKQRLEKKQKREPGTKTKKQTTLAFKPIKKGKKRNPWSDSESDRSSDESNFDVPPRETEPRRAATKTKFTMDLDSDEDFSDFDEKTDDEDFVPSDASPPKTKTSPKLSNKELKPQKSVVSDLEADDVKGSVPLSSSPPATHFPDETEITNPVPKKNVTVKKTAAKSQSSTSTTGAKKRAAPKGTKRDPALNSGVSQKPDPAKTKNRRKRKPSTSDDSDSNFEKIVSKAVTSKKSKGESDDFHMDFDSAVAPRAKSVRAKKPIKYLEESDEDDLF

## COc1ccc(C(c2ccccc2OCCN2CCCC2)c2cccc3ccccc23)c(OC)c1OC (stereo unspecified)
[1]
  Activity: 21.18 U/L
MCF7 [2]
  Activity: 12.98%
MCF7 [3]
  IC50: 4.33 µM
[4]
  Activity: 22.34 U/L
[5]
  Activity: 0.57 g/dL
MCF7 [6]
  Activity: 10.5%
MCF7 [7]
  Activity: 10.9%
[8]
  inhibition: 25.9%
MCF7 [9]
  Activity: 0%
[10]
  inhibition: 0.22%
MDA-MB-231 [11]
  Activity: 10.35%
[12]
  Activity: 137.7 U/L
[13]
  Activity: 94.42 mg/dL
MCF7 [14]
  Activity: 67.4%
MDA-MB-231 [15]
  IC50: 5.21 µM
MCF7 [16]
  Activity: 52.8%
A549
  IC50: 5.85 µM
[17]
  Activity: 120.54 mg/dL
MCF7 [18]
  inhibition: Dose-dependent effect
MCF7 [18]; MCF7, 504 h
  IC50: 11.2 µg/mL (≈ 22.6 µM)
[19]
  Activity: 9.96 g/dL
MDA-MB-231 [20]
  Activity: 2.1%
MDA-MB-231 [21]
  Activity: 14.7%
[22]
  Activity: Non-Toxic
MCF7 [23]
  Activity: 13.4%
[24]
  Activity: Non-Toxic
MDA-MB-231 [25]
  Activity: 3.5%
[26]
  Activity: 30.44 g
MCF7 [27]
  Activity: 77.8%
[28]
  Activity: 182.4 U/L
MDA-MB-231 [29]
  Activity: 0.8%
[30]
  Activity: Non-Toxic
HCT-116
  IC50: 2.03 µM
MCF7 [31]
  Activity: 79.36%
[32]
  Activity: 30.58 g
[33]
  Activity: Non-Toxic
